One block for each compound: values may come before it.
Legend:
[1] = tested on: SURVIVIN, OCT4 and NANOG; experiment: qRT-PCR of the three probed genes together (SURVIVIN, OCT4, NANOG) in hES cells; type: cell-based, human; details: 72 hours
Description: (§1) Total cellular RNA was extracted from cells using TRIzol (Invitrogen) and DNase treated with the DNA-free kit (Ambion, Austin, Tex., http (colon slash slash) www (dot) ambion.com) following manufacturer's directions for stringent conditions. RNA was dialyzed for 30 minutes against milliqwater, 10 mM Tris and 1 mM EDTA adjusted to pH 7.5 with HCL (all from Fisher). cDNA was synthesized using GeneAmp RNA PCR kit from Applied Biosciences (Fisher) and no-RT reactions were performed without reverse transcriptase and RNase inhibitor enzymes. One microgram of RNA was used, following manufacturer's directions. Quantitative real time polymerase chain reaction (qPCR) was performed to determine relative mRNA expression levels. Expression fold changes were calculated using the ΔΔCt method and normalized using the housekeeping gene, β-ACTIN as an internal control. Taqman master mix and gene assays with water only were used as a negative control. mRNA expression assays were analyzed in a triplicate PCR reaction with no-RT negative controls and each experiment was performed at least three independent times. Primers for OCT4 and NANOG were selected from predeveloped Applied Biosystems TaqMan Assays, which are pre-designed qPCR primers and TaqMan MGB probes; Oct-4 (Hs01895061_u1) and Nanog (Hs02387400_g1) were selected. Primers for SURVIVIN were: […]
(§2) Based on the toxicity results, nine of the above twelve compounds in Example 1 were selected for further screening to assess their effects on the expression of OCT4, NANOG and SURVIVIN in human embryonic stem cells. The results are summarized in Table 2, along with the mitochondrial inhibition activities for these compounds which were disclosed in US20110301180A1 to Collman et al. the content of which has been incorporated herein by reference.
(§3) The pluripotency of these cultured human embryonic stem cells were characterized by the marker gene expression as analyzed by Quantitative Reverse Transcriptase PCR (qRT-PCR). All compounds were tested at 1 mM concentration for 72 hours except for compound 1 which was tested at 10 μM. The reversibility of mitochondrial inhibition is presented in the right column.

[2] = tested on: NANOG; experiment: qRT-PCR gene expression in hES cells: NANOG; type: cell-based; details: Homo sapiens, 72 hours, normalized to β-ACTIN, read-out: Expression relative to control, NANOG; for fold induction at 1000 µM: 1 mM
Description: as §1, §2, §3

[3] = tested on: mitochondrial respiration; details: cited from earlier work; for Inhibition/Reversibility in mitochondrial inhibition: disclosed in US20110301180A1; for mitochondrial inhibition IC50: values from US 20110301180
[4] = tested on: OCT4; experiment: qRT-PCR gene expression in hES cells: OCT4; type: cell-based, human; details: 72 hours
Description: as §1, §2, §3

[5] = tested on: SURVIVIN; experiment: qRT-PCR gene expression in hES cells: SURVIVIN; type: cell-based; details: Homo sapiens, 72 hours, normalized to β-ACTIN, read-out: Expression relative to control, SURVIVIN; for fold induction at 1000 µM: 1 mM
Description: as §1, §2, §3

[6] = tested on: human embryonic stem cells; experiment: Toxicity testing of mitochondrial inhibitors on hES cells (72 hr culture, crystal violet staining); details: for nontoxic concentration (no toxicity up to): tested from 0.1 mM to 50 mM
Description: Human ES cells, WA09 (WiCell Research Institute, Madison, Wis.) were cultured on dishes coated for at least two hours with Matrigel (BD Biosciences, Franklin Lakes, N.J.). hES cell media containing 80% knockout Dulbecco's modified eagle medium (DMEM), 20% knockout serum replacer, 1% nonessential amino acids, 1% penicillin/streptomycin (100 U per 100 μg/ml), 2 mM L-glutamine, (all from Invitrogen, Carlsbad, Calif.) and 4 ng/ml basic fibroblast growth factor (bFGF, ReproCELL, San Jose, Calif.) was pre-conditioned by culture with inactivated mouse embryonic fibroblasts (MEF; Millipore, Billerica, Mass.) and collected every two days. hES cell lines were cultured with human conditioned media (HuCM) supplemented with 4 ng/ml bFGF and a heterocyclic compound of a certain concentration. hES cells were maintained by weekly manual passaging or bulk passaging using 1 mg/ml Collagenase IV (Invitrogen). hES cells were plated for experiments using Accutase (Fisher, Pittsburgh, Pa.) and plated at a density of 26,000 cells/cm^2.
Toxicity Testing hES cells were plated as above and subjected to increasing concentrations of the mitochondrial inhibitors for 72 hr of culture. After 72 hr the cells were fixed in 2.0% formaldehyde and stained for 30 min with 0.05% crystal violet in distilled water. Stained cells were rinsed twice with distilled water and imaged using bright field microscopy.
These compounds were initially tested at concentrations from 0.1 mM to 50 mM.

[7] = Solubility in the culture media; type: physicochemical; details: hES cell culture media
Excerpt: Compound 2 was not soluble in the culture media and was not tested further.

[8] = tested on: NANOG; details: human embryonic stem cells; cited from earlier work
[9] = Homo sapiens, 1 mM, normalized to β-ACTIN, read-out: Expression relative to control, OCT4

Compound: Cc1ncsc1CCOC(=O)C[P+](c1ccccc1)(c1ccccc1)c1ccccc1.[Br-] [Compound 1, [2-[2-(4-methylthiazol-5-yl)ethoxy]-2-oxo-ethyl]-triphenyl-phosphonium bromide]
One of the genes overexpressed by at least 10% ([1]; 10 μM): No
change in expression of SURVIVIN, OCT4 and NANOG following treatment (FIG. 2) ([1]; 10 μM): decreased expression of all three genes
fold induction at 10 µM ([2]; 10 μM): 0.902
Inhibition/Reversibility in mitochondrial inhibition [3]: No
mitochondrial inhibition IC50 [3]: 8.8 mg/mL
fold induction at 10 µM ([4]; Homo sapiens, 10 μM, normalized to β-ACTIN, read-out: Expression relative to control, OCT4): 0.9
fold induction at 10 µM ([5]; 10 μM): 0.892
toxicity at the initially tested concentrations ([6]; initial range 0.1 mM to 50 mM): toxic at all concentrations tested initially
nontoxic / well tolerated concentration (up to) ([6]; retested at 0.1 to 100 μM): up to 10 μM

Compound: Nc1nnn[nH]1 [Compound 7, 1H-tetrazol-5-amine]
One of the genes overexpressed by at least 10% ([1]; 1 mM): Yes
change in expression of SURVIVIN, OCT4 and NANOG following treatment (FIG. 2) ([1]; 1 mM): increased expression of SURVIVIN and OCT4 but not NANOG
fold induction at 1000 µM [2]: 0.917
Inhibition/Reversibility in mitochondrial inhibition [3]: reversible mitochondrial inhibitors and Yes
mitochondrial inhibition IC50 [3]: 8.5 mg/mL
OCT4 overexpression ([4]; 1 mM, vs control): at least 50%
fold induction at 1000 µM [4, 9]: 1.53
fold induction at 1000 µM [5]: 1.73

Compound: Cc1nnn[nH]1 [Compound 10, 5-methyl-1H-tetrazole]
One of the genes overexpressed by at least 10% ([1]; 1 mM): No
change in expression of SURVIVIN, OCT4 and NANOG following treatment (FIG. 2) ([1]; 1 mM): decreased expression of all three genes
fold induction at 1000 µM [2]: 0.778
fold induction at 1000 µM [4, 9]: 0.977
fold induction at 1000 µM [5]: 0.981

Compound: Cc1cncs1 [Compound 4, 5-methylthiazole]
One of the genes overexpressed by at least 10% ([1]; 1 mM): Yes
change in expression of SURVIVIN, OCT4 and NANOG following treatment (FIG. 2) ([1]; 1 mM): increased expression of all three genes
fold induction at 1000 µM [2]: 1.14
Inhibition/Reversibility in mitochondrial inhibition [3]: reversible mitochondrial inhibitors and Yes
mitochondrial inhibition IC50 [3]: 23.5 mg/mL
fold induction at 1000 µM [4, 9]: 1.13
fold induction at 1000 µM [5]: 1.27
nontoxic concentration (no toxicity up to) [6]: ≤ 10 mM

Compound: O=C(O)Cc1nnn[nH]1 [Compound 11, 2-(1H-tetrazol-5-yl)acetic acid]
One of the genes overexpressed by at least 10% ([1]; 1 mM): No
change in expression of SURVIVIN, OCT4 and NANOG following treatment (FIG. 2) ([1]; 1 mM): increase in OCT4 and no other genes
fold induction at 1000 µM [2]: 0.849
fold induction at 1000 µM [4, 9]: 1.07
fold induction at 1000 µM [5]: 0.975

Compound: CSc1nnn[nH]1 [Compound 12, 5-methylsulfanyl-1H-tetrazole]
One of the genes overexpressed by at least 10% ([1]; 1 mM): Yes
change in expression of SURVIVIN, OCT4 and NANOG following treatment (FIG. 2) ([1]; 1 mM): increased expression of SURVIVIN and OCT4 but not NANOG
fold induction at 1000 µM [2]: 0.844
Inhibition/Reversibility in mitochondrial inhibition [3]: reversible mitochondrial inhibitors and Yes
mitochondrial inhibition IC50 [3]: 14.5 mg/mL
fold induction at 1000 µM [4, 9]: 1.16
fold induction at 1000 µM [5]: 1.05

Compound: CCOC(=O)Cc1nnn[nH]1 [Compound 6, ethyl 2-(1H-tetrazol-5-yl)acetate]
One of the genes overexpressed by at least 10% ([1]; 1 mM): Yes
change in expression of SURVIVIN, OCT4 and NANOG following treatment (FIG. 2) ([1]; 1 mM): increased expression of SURVIVIN and OCT4 but not NANOG
fold induction at 1000 µM [2]: 0.867
mitochondrial inhibition IC50 [3]: 100 mg/mL
fold induction at 1000 µM [4, 9]: 1.34
fold induction at 1000 µM [5]: 1.75

solubility in the culture media [7]: not soluble
Compound: c1ccc(CSc2nnn[nH]2)cc1 [Compound 2, 5-benzylsulfanyl-1H-tetrazole]

Compound: CCCCCC[C@H]1C(=O)O[C@H](C)[C@H](NC(=O)c2cccc(NC=O)c2O)C(=O)O[C@@H](C)[C@@H]1OC(=O)CC(C)C [Antimycin A, [(2R,3S,6S,7R,8R)-3-[(3-formamido-2-hydroxybenzoyl)amino]-8-hexyl-2,6-dimethyl-4,9-dioxo-1,5-dioxonan-7-yl] 3-methylbutanoate]
effect on expression of pluripotency factor NANOG [8]: increase in the expression of pluripotency factor NANOG

Compound: Brc1nn[nH]c1Br [Compound 9, 4,5-dibromo-1H-triazole]
toxicity at 1 mM ([6]; 1 mM): minimal toxicity
nontoxic concentration (no toxicity up to) [6]: up to 0.1 mM

Compound: Cn1c(-c2ccccc2)cnc1S [Compound 5, 3-methyl-4-phenyl-1H-imidazole-2-thione]
One of the genes overexpressed by at least 10% ([1]; 1 mM): Yes
change in expression of SURVIVIN, OCT4 and NANOG following treatment (FIG. 2) ([1]; 1 mM): increased expression of all three genes
fold induction at 1000 µM [2]: 1.16
mitochondrial inhibition IC50 [3]: 5.4 mg/mL
fold induction at 1000 µM [4, 9]: 1.5
fold induction at 1000 µM [5]: 1.44
nontoxic concentration (no toxicity up to) [6]: at least 5 mM

Compound: O=C(O)CCCC[C@H]1CCSS1 (single isomer, unassigned) [Compound 3, 5-[(3R or 3S)-dithiolan-3-yl]pentanoic acid]
One of the genes overexpressed by at least 10% ([1]; 1 mM): Yes
change in expression of SURVIVIN, OCT4 and NANOG following treatment (FIG. 2) ([1]; 1 mM): increased expression of SURVIVIN and OCT4 but not NANOG
fold induction at 1000 µM [2]: 0.717
mitochondrial inhibition IC50 [3]: 37.1 mg/mL
fold induction at 1000 µM [4, 9]: 1.85
fold induction at 1000 µM [5]: 1.11

— patent publication US10196604B2, “Mitochondrial inhibitors for use in culturing pluripotent stem cells” (The Board of Trustees of the Leland Stanford Junior …, priority 2014, dated 2019)
